Experimental data published in article PMC8747639, “Novel Angiotensin-Converting Enzyme Inhibitory Peptides Identified from Walnut Glutelin-1 Hydrolysates: Molecular Interaction, Stability, and Antihypertensive Effects” (Nutrients, 2021).

T1: angiotensin-converting enzyme (ACE) from rabbit lung (rabbit) (UniProt P12822)
T1 sequence: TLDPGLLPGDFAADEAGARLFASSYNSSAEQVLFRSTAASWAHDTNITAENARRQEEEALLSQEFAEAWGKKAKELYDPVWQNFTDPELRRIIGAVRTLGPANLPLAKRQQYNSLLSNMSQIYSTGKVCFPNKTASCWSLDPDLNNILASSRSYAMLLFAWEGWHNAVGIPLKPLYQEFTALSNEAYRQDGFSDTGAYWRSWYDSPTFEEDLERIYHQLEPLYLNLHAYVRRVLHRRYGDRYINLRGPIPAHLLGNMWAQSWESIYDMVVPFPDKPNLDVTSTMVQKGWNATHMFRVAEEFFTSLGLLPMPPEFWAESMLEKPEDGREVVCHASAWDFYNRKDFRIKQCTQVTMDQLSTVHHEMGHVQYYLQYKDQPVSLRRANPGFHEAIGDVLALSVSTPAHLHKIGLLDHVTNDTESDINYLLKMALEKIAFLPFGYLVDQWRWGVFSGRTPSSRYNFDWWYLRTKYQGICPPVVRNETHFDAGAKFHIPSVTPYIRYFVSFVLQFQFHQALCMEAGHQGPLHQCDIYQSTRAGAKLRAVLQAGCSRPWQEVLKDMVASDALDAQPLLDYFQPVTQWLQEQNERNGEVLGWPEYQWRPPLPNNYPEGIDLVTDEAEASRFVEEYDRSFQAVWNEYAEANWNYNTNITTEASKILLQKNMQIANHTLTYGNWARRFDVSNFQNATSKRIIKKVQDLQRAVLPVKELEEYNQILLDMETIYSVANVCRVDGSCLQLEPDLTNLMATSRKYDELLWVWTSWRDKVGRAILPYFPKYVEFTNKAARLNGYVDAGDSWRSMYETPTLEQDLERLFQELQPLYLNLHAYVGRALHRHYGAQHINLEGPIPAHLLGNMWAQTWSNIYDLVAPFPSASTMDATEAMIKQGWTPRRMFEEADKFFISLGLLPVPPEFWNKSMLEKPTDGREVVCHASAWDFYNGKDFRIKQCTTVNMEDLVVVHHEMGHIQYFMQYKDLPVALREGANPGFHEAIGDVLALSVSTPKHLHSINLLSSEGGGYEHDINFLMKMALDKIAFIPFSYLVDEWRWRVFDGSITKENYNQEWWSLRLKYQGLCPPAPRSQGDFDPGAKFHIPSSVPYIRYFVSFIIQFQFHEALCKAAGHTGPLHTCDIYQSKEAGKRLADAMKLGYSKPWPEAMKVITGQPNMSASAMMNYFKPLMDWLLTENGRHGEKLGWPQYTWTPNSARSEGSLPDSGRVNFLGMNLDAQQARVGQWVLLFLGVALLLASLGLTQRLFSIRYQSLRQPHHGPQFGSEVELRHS


Legend:
[1] = test system: spontaneously hypertensive rats (SHRs); assay: BP measurement after single oral administration in SHR (tail-cuff); assay type: in vivo, rat; details: single intragastric administration, captopril 10 mg/kg, 0-8 h
Method: (§1) Thirty 10-week-old male spontaneously hypertensive rats (SHRs) and five normal male rats of the same age were used for the experiment. The rats were placed at 25 °C ± 1 °C, relative humidity of 45–55% and a light/dark cycle for 12 h. SHRs were randomly divided into 6 groups after one week of adaptation, while rats in the normal group (NG) were used as controls. The administration was continued for 28 days.
(§2) Rats in the normal and SHR groups were given 1.0 mL of 0.9% saline per day, while the positive control group was given captopril (10 mg/kg body weight) per day. The ACE inhibitory peptides treatment groups’ low and high doses were fed orally with 5 and 15 mg/kg (based on their body weight) by dissolving the peptides in 1.0 mL of 0.9% normal saline. The rats’ BP was measured by the tail-cuff method. The systolic blood pressure (SBP), diastolic blood pressure (DBP), and heart rate of all rats were measured after a single oral administration (0–8 h) and weekly (0–4 weeks). All measurements were repeated at least three times so the average value could be calculated.

[2] = test system: spontaneously hypertensive rats (SHRs); assay: BP measurement during four weeks of oral administration in SHR (tail-cuff); assay type: in vivo, rat; details: daily oral, captopril 10 mg/kg
Method: as §1, §2

[3] = test system: serum ET-1, NO, ACE, Ang II, AGT, ALD; assay: Serum ET-1, NO, ACE, Ang II, AGT and ALD in SHR (ELISA / NO kit); assay type: in vivo, rat; details: 28 days oral administration, ELISA, p < 0.05
Excerpt: The Grain, Oil and Protein Engineering Laboratory of Shaanxi Normal University (Xi’an, China) provided the defatted walnut meal. ACE (from rabbit lung) and hippuryl-histidyl-leucine (HHL) were purchased from Sigma Co., St. Louis, MO, USA. Pepsin (3 × 10^3 U/g) was obtained from Solarbio Science & Technology, Co., Ltd. (Beijing, China). High-performance liquid chromatography grade acetonitrile and trifluoroacetic acid were purchased from Fischer Scientific Co. (Waltham, MA, USA). The enzyme-linked immunosorbent assay kit for the detection of ACE, angiotensinogen (AGT), aldosterone (ALD), and Endothelin-1(ET-1) was purchased from Jiangsu Jingmei Biotechnology Co., Ltd. (YanCheng, China). The enzyme-linked immunosorbent assay kit for the detection of Ang II was obtained from Shanghai Kexing Biotechnology Co., Ltd., (Shanghai, China). and the nitric oxide (NO) detection kit was a product of Nanjing Jiancheng Institute of Biological Engineering (Nanjing, China), and other chemical reagents used in the experiment were of analytical grade.
The upper serum samples were obtained by centrifugation at 3000× g at 4 °C for 10 min after the blood was taken from the abdominal aorta of all rats. The samples were stored at −20 °C, and the serum expression was detected using the ELISA kit (double antibody sandwich enzyme-linked immunosorbent assay).

[4] = target: T1, angiotensin-converting enzyme (ACE) from rabbit lung (rabbit)

Row | Molecule | maximal reduction in SBP [1] [mmHg] | SBP compared with the SHRs group after one week of oral administration ([2]; peptides 5 and 15 mg/kg, p < 0.01) | DBP course during continuous administration ([2]; peptides low dose 5 mg/kg, decline reached a maximum in the second week) | serum ACE level of the SHR control group compared with the treated group [3] | serum AGT level of the SHR control group compared with the treated group [3] | serum ALD level of the SHR control group compared with the treated group [3] | serum AngII level of the SHR control group compared with the treated group [3] | IC50 of ACE inhibitory activity (enzyme activity assay, ACE from rabbit lung, substrate HHL) [4] [µM]
1 | C[C@H](CS)C(=O)N1CCC[C@H]1C(=O)O [captopril, reference compound] | 29.5 | significantly lower | began to decrease after one week of continuous administration | significantly higher | significantly higher | significantly higher | significantly higher | –
2 | Phe-Val-Ile-Glu-Pro-Asn-Ile-Thr-Pro-Ala (…) (peptide) | – | – | – | – | – | – | – | 6.36
3 | VERGRRITSV [Val-Glu-Arg-Gly-Arg-Arg-Ile-Thr-Ser-Val (…)] | – | – | – | – | – | – | – | 6.82
